Experimental findings from paper PMC6017563 (Molecules : A Journal of Synthetic Chemistry and Natural …, 2018) are described below.

SMILES strings stand for the structures.

One data set concerns testosterone in plasma. Briefly: Testosterone-suppressive effect (plasma testosterone, AUEC, PK-PD model), normal rats. It is filed as in vivo. To be noted: Wistar, baseline AUEC subtracted, mean ± SE, n = 5. The text has this: Leuprolide is a GnRH agonist for the treatment of prostate cancer which is a target disease in this study. In the label of the Lucrin depot, this is indicated for palliative treatment of advanced prostatic cancer. Therefore, we used the testosterone concentration as a PD marker of prostate cancer, and plasma testosterone is one of qualified biomarkers used as outcomes in the therapeutic area of oncology. Since most of the PD responses are expressed as a concentration profile of endogenous substances, it is difficult to calculate the value as a general trapezoidal rule. Scheff et al. introduced several methods for calculating AUEC when baselines differ. In this study, drug-specific AUEC was calculated by subtracting the baseline AUEC from the AUEC calculated by a general method, and these drug-specific AUECs were calculated by dividing them into positive AUECs and negative AUECs. […] There were significant differences between positive and negative AUEC in all experimental groups. When absolute values of positive and negative AUEC were compared, negative AUEC was more than three times higher. […] However, there was no significant difference in AUEC between each group on formulation, species and route of administration. This estimation of AUEC means that it could be used as a method for evaluating the formulation.
The PK–PD model, which describes the mechanism of negative feedback of leuprolide, was selected based on leuprolide mechanism characteristics and biomarker characteristics. […] The equations of the baseline model are as follows:(11) dR/dt = kin−kout·R (12) R0, wistar = 4.353 (13) R0,Iar:COP = 4.094 where kin and kout represent the apparent zero-order rate constant for the production of response and the first-order rate constant for the loss of response, respectively. These were estimated by curve fitting with the vehicle-administered group and used as the basic parameters of the drug-effect model described below (Group 2).
For this, several PD models were attempted, and the final PD model decided on was the tolerance model including the feedback compartment.
The plasma concentration of testosterone in plasma samples of each group was quantified using testosterone enzyme-linked immunosorbent assay (ELISA) kits (R&D Systems, Minneapolis, MN, USA). […]
Determination of the testosterone concentration was performed on using the validated Parameter^TM Testosterone Assay (R&D Systems, Minneapolis, MN, USA) and its process. […] The reaction was stopped when 50 μL of stop solution (2N sulfuric acid) was added, and the optical density of each well was measured using SynergyMX (BioTek, Winooski, VT, USA). All plasma samples were measured twice. […]

A further data set is described as follows: in vivo. The note with it: rat; for half-life: plasma. The procedure:
The PK parameters for each experimental group were estimated by one-compartmental analysis using WinNonlin® software (version 7.0, Pharsight®, a Certara™ Company, Princeton, NJ, USA).
For the vehicle-administered groups (Groups 2 and 5), the above dispersion solution was administered instead of the drug (Table 5). Blood samples were directly drawn from the right jugular vein at predetermined time intervals before administration and at 0.25, 1, 2, 4, 8 h, 1, 2, 3, 4, 5, 6, 7, 11, and 14 days after the drug administration. Approximately 300 μL of blood was collected periodically in heparinized tubes via the catheter and was immediately centrifuged at 12,000 g for 5 min and then stored at −80 °C until analysis.
After being shaken with a vortex mixer for 3 min and centrifuged at 10,000× g for 5 min at room temperature, the upper supernatant was transferred to a clean tube and mixed with 20 µL of acetic acid and 900 µL of methylene chloride by vortex-mixing for 3 min and centrifugation at 10,000× g for 5 min at room temperature. The aqueous upper sample aliquots (10 µL) were directly injected into the UPLC–MS/MS system. Analyses were performed with the following UPLC–MS/MS system: Acquity™ UPLC system (Waters Corp., Milford, MA, USA), Mass Spectrometer (Xevo™ TQ-S, Waters Corp.), HALO peptide ES-C18 column (2.1 mm × 100 mm, 2.7 µm particle size, Advanced Material Technology, Wilmington, DE, USA). The mobile phase consisted of 1% acetic acid in water and 1% acetic acid in acetonitrile with gradient at a flow rate of 0.2 mL/min.
The mass spectrometric detection was performed using an electrospray ionization (ESI) source in positive ionization mode. The optimization of MS parameters was accomplished as follows: capillary voltage, 2.9 kV; ion source temperature, 150 °C; desolvation temperature, 350 °C; flow rate of cone gas, 150 L/h; flow rate of desolation gas, 600 L/h; and pressure of argon gas, 4.5 × 10^−3 mbar, respectively. […] Data acquisition and analysis were performed by Masslynx 4.1 software (Waters Corp., Milford, CT, USA).
The PK and PD analysis was performed by non-compartmental and compartment analysis using WinNonlin® software (version 7.0, Pharsight®, a Certara™ Company, Princeton, NJ, USA). The maximum plasma concentration (Cmax) and the time to reach Cmax (Tmax) were measured by visual observation of the individual plasma concentration–time curve. The AUC0–∞ was integrated by the linear trapezoidal rule from time zero to the final measured concentration and was extrapolated from the final measured concentration to infinity. […] The elimination rate constant k is a value used to describe the rate at which the drug is removed from the biological system. The volume of distribution (Vd), which is the theoretical volume in biological fluid, was calculated as CL divided by the k, and the bioavailability (F) was estimated as the AUC0–∞ obtained from SC administration divided by the AUC0–∞, obtained from IV administration. AUEC could be estimated by numerical integration over all segments of the effect-time curve by the trapezoidal rule without extrapolation to infinity. Because the endogenous testosterone was used as a PD marker in this study, the AUEC value subtracted from the baseline AUEC was used for data analysis.
The PK–PD modeling was conducted to describe the PK–PD relationship, and to estimate model parameters using Berkeley Madonna software (ver. 8.3.14). Berkeley Madonna software is a useful tool for modeling and analysis of various biological systems by solving the various differential equations. […] Consequently, the PD model was established in two steps. First, the baseline model was developed by using the baseline profiles of the vehicle-administered control group. Second, the drug-effect model was established based on the parameters that were estimated from the baseline model.

The mark [1] stands for this setting: Group 1, leuprolide solution 0.1 mg/kg IV.
[2] abbreviates: Group 3, leuprolide solution 0.1 mg/kg SC.

In the case of `CCNC(=O)[C@@H]1CCCN1C(=O)[C@H](CCCNC(=N)N)NC(=O)[C@H](CC(C)C)NC(=O)[C@@H](CC(C)C)NC(=O)[C@H](Cc1ccc(O)cc1)NC(=O)[C@H](CO)NC(=O)[C@H](Cc1c[nH]c2ccccc12)NC(=O)[C@H](Cc1c[nH]cn1)NC(=O)[C@@H]1CCC(=O)N1` [leuprolide, Leuprolide (Pyr-His-Trp-Ser-Tyr-D-Leu-Leu-Arg-Pro-NHEt)], in the data set with testosterone in plasma (setting [1]), the “Negative AUEC (drug-specific, testosterone-suppressive effect)” value was −1404.30 ± 287.31 and the “Positive AUEC (drug-specific, testosterone flare-up effect)” value is 208.24 ± 52.30. In the data set with testosterone in plasma (setting [2]), the “Negative AUEC (drug-specific, testosterone-suppressive effect)” value is −775.98 ± 289.13 and the “Positive AUEC (drug-specific, testosterone flare-up effect)” value is reported as 220.87 ± 39.56. In “in vivo” (Wistar, in vivo, iv, 0.1 mg/kg), the AUC(0-inf) was 106 ± 17.3 ng·h/mL, the AUC(0-t) came out at 103 ± 16.9 ng·h/mL, the C0 was 97.1 ± 13 ng/mL and the Vd worked out at 0.193 ± 0.0542 L. Moreover, in “in vivo” (Wistar, in vivo, iv, 0.1 mg/kg), the clearance is 4.14 mL/min. Moreover, in “in vivo” (Wistar, in vivo, sc, 0.1 mg/kg), the AUC(0-inf) turned out to be 53.3 ± 9.96 ng·h/mL, the AUC(0-t) came out at 51.2 ± 9.56 ng·h/mL, the Cmax was 41.5 ± 4.61 ng/mL and the bioavailability is 50.6%. The half-life in “in vivo” (Wistar, iv, 0.1 mg/kg) is 31.2 ± 6 min. The half-life in “in vivo” (Wistar, sc, 0.1 mg/kg) was 39.6 ± 1.8 min. Besides, in “in vivo” (in vivo), the CL is reported as 514.46 ± 40.10 mL/h, the “F (bioavailability)” value stood at 50.6% and the Vd was 0.4874 ± 0.02902 L.
